Experimental data: PMC11079029, “Intramolecular autoinhibition regulates the selectivity of PRPF40A tandem WW domains for proline-rich motifs” (Nature Communications, 2024)
Read-outs that look alike come from different tables or passages of the source. No end group written: not given here.

Target: T1, PRPF40A WW12 (tandem WW domains, residues 141–236) (Homo sapiens, UniProt O75400)
T1 construct: WW12 141–236, WW12long 141–248, and N-ext-WW12 56–236; 6xHis-TEV site (N, cleaved yes); made in house; host or cells: Escherichia coli BL21(DE3)
Experiment: ITC of PRPF40A WW12 with GB1-tagged proline-rich peptides and constructs
Format: binding
Settings: for N (sites): ITC as E1, peptide in the cell, N >1 = more than one WW tandem per peptide; for DH: ITC binding enthalpy; for Kd: ITC
Description: PRPF40A isoform 1 sequences (N-ter 1–310, WW12short 141–223, WW12 141–236, WW12long 141–248, and N-ext-WW12 56–236) were amplified from a purchased DNA fragment (IDT) and cloned using NcoI and KpnI restriction sites into a pETM11 vector encoding 6xHis and TEV cleavage site as a N-terminal tag. SF1 (Pro A 410–468, Pro B 468–539, Pro C 539–594, Pro D 594–639, Pro BC 468–594, Pro CD 539–639, Pro BCD 468–639 and Pro ABCD 410–639) and SF3A1 (Middle Pro 364–413 and C-ter Pro 552–683) constructs were prepared in a similar manner using a pET24 vector with a 6xHis, GB1 and TEV cleavage site as N-terminal fusion cassette. 16-mer SF1 constructs (Table 1) and polyproline peptides (P6, P8, P10, P13, P16, P19, P22, P25, and P29) were cloned in the same pET24 vector with GB1 tag by direct ligation of purchased oligonucleotides (Eurofins). All peptide sequences contained N and C-terminal common residues to avoid boundary effects on binding: TEVsite-GAMSGS-peptide-SGSN. Mutants of PRPF40A WW12 and N-ext-WW12 constructs were prepared by site-directed mutagenesis. The truncated version of PRPF40A WW12 (141-217) was a gift from Dr. María Macías (IRB, Spain). All used oligonucleotides were purchased from Eurofins Genomics and are shown in Supplementary Table 6.
Resuspended cell pellets in 20 mM Tris pH 8.0, 500 mM NaCl, 10 mM imidazole, 0.5 mM TCEP, and protease inhibitors mix (SERVA) were lysed by cell disruption in a French press. Clear lysates, after centrifugation (at 18,000 g) and filtering, were loaded into Ni-NTA resin. The resin was then washed with 20 mM imidazole containing buffer, and the desired protein was eluted with 500 mM imidazole. PRPF40A constructs were then subjected to TEV protease treatment (homemade at a final concentration of ≈50 μg/ml), dialyzed overnight at 4 °C against an imidazole-free buffer, and then loaded again to Ni-NTA resin; desired digested proteins were obtained in the flow-through and wash fractions while uncleaved protein, TEV protease, and impurities remained bound to the resin. Cleaved PRPF40A proteins and GB1-tagged SF1, SF3A1, and polyproline constructs were further purified by size-exclusion chromatography on a HiLoad 16/60 Superdex 75 column (GE Healthcare) equilibrated with 20 mM sodium phosphate, pH 6.5, 100 mM NaCl and 1 mM DTT buffer. For the purification of PRPF40A WW12 in complex with SF1 peptide, cell pellets of recombinant expression for both proteins were mixed and processed together following the Ni-NTA—TEV digestion—reverse Ni-NTA—SEC-75 protocol; where the complex remained bound in a 1:1 stoichiometry throughout the whole purification (corroborated by NMR). Molecular weight of each sample was confirmed by mass spectrometry, purity was checked by PAGE-SDS, and protein concentrations were determined from the aromatic contribution to the UV absorbance spectra at 280 nm.
Experiments were conducted on a MicroCAl PEAQ-ITC (Malvern Instruments, UK) at 25 °C in 20 mM sodium phosphate pH 6.5 and 100 mM NaCl. PRPF40A was titrated into N-terminal GB1 tagged SF1 or polyproline constructs and vice versa with similar results. Protein concentrations in the cell were around 20–40 μM, while in the syringe ranged between 200 and 500 μM. Experiments were performed at least in duplicate with injections of 1.5 μL (0.4 μL for first point) separated by 150 s delays to recover thermal power baseline and continuous stirring in the cell (750 rpm) for correct mixing. The reference cell was filled with water in all experiments. Data were processed by removing the blank experiment (using digested GB1 fusion protein) and adjusted to one-site binding model with Malvern PEAQ-ITC Analysis software (Malvern Instruments, UK).

[1] = 25 °C, 20 mM sodium phosphate pH 6.5, 100 mM NaCl, GB1-tagged polyproline or SF1 16-mer peptide in the cell, WW tandem in the syringe, one-site model, apparent Kd, average of at least duplicates, read-out: Kd
[2] = SF1 peptides, individual value 1 (replicate 1), read-out: Kd Values with WW12, individual value
[3] = SF1 peptides, individual value 2 (replicate 2), read-out: Kd Values with WW12, individual value
[4] = SF1 peptides, individual value 3 (replicate 3), read-out: Kd Values with WW12, individual value

T1 sequence (O75400 141-236): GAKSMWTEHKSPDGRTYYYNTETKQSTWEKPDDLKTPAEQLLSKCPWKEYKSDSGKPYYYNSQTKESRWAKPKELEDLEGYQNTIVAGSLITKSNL

| Substance | N (sites) (WW tandem in the syringe) | DH (as E1) [kcal/mol] | Kd [1] [µM] | Kd [2] [µM] | Kd [3] [µM] | Kd [4] [µM] | DH (as E4) [kcal/mol] |
| --- | --- | --- | --- | --- | --- | --- | --- |
| MPPFGMPPAPPPPPPQ [SF1_623–638, GB1-tagged 16-mer from the SF1 C-terminal region] | 0.95 ± 0.10 | -10.7 ± 3.54 | 23.3 ± 13.3 | 21.8 | 24.8 |  |  |
| MPPPPPPPSGQPPPPP [SF1_478–493, GB1-tagged 16-mer from the SF1 C-terminal region] | 0.80 ± 0.11 | -14.3 ± 0.956 | 9.59 ± 0.9 | 8.26 | 10.3 | 10.2 |  |
| MQPPPPPMNQGPHPPG [SF1_425–440, GB1-tagged 16-mer from the SF1 C-terminal region] | 0.87 ± 0.07 | -13.3 ± 1.41 | 20.2 ± 3.1 | 15.9 | 21.8 | 22.9 |  |
| MYAPPPPPPPPMDPSN [SF1_596–611, GB1-tagged 16-mer from the SF1 C-terminal region] | 1.10 ± 0.30 | -10.9 ± 8.8 | 65.9 ± 50.7 |  |  |  |  |
| P10: recombinant GB1-tagged polyproline peptide, 10 prolines (GB1-GAMSGSPPPPPPPPPPSGSN; not fully specified) | 0.89 ± 0.11 | -9.63 ± 1.24 |  |  |  |  |  |
| P13: recombinant GB1-tagged polyproline peptide, 13 prolines (GB1-GAMSGSPPPPPPPPPPPPPSGSN; not fully specified) | 0.78 ± 0.07 | -15.7 ± 1.54 |  |  |  |  |  |
| P16: recombinant GB1-tagged polyproline peptide, 16 consecutive proline residues (GB1-GAMSGSPPPPPPPPPPPPPPPPSGSN; also: His6 tag state not given here) | 0.88 ± 0.08 | -15.2 ± 0.621 |  |  |  |  |  |
| P19: recombinant GB1-tagged polyproline peptide, 19 prolines (GB1-GAMSGSPPPPPPPPPPPPPPPPPPPSGSN; also: His6 tag state not given here) | 1.10 ± 0.04 | -18.2 ± 0.837 |  |  |  |  |  |
| P22: recombinant GB1-tagged polyproline peptide, 22 prolines (GB1-GAMSGSPPPPPPPPPPPPPPPPPPPPPPSGSN; also: His6 tag state not given here) | 1.39 ± 0.03 | -18.6 ± 0.574 |  |  |  |  |  |
| P25: recombinant GB1-tagged polyproline peptide, 25 prolines (GB1-GAMSGSPPPPPPPPPPPPPPPPPPPPPPPPPSGSN; also: His6 tag state not given here) | 2.30 ± 0.09 | -16.6 ± 0.645 |  |  |  |  |  |
| P29: recombinant GB1-tagged polyproline peptide, 29 prolines (GB1-GAMSGSPPPPPPPPPPPPPPPPPPPPPPPPPPPPPSGSN; also: His6 tag state not given here) | 2.47 ± 0.09 | -15.8 ± 0.502 |  |  |  |  |  |
| SF1 Pro A: GB1-tagged SF1 construct, residues 410–468 (GB1-GHPMQHNPNGPPPPWMQPPPPPMNQGPHPPGHHGPPPMDQYLGSTPVGSGVYRLHQGKG; also: His6 tag state not given here) |  |  |  |  |  |  | -15.1 ± 3.54 |
| SF1 Pro C: GB1-tagged SF1 construct, residues 539–594, contains the WWbs 16-mer (GB1-GSIPPWQQQQAAAAASPGAPQMQGNPTMVPLPPGVQPPLPPGAPPPPPPPPPGSAG; also: His6 tag state not given here) |  |  |  |  |  |  | -20.6 ± 0.22 |
| SF1 Pro D: GB1-tagged SF1 construct, residues 594–639 (GB1-GMMYAPPPPPPPPMDPSNFVTMMGMGVAGMPPFGMPPAPPPPPPQN; also: His6 tag state not given here) |  |  |  |  |  |  | -16 ± 4.52 |
